This note sets out measurements from patent publication US20040146959A1, “Fluorescent enzyme assay methods and compositions” (priority 2002, published 2004).

For orientation: Km means the concentration of substrate that gives half-maximal velocity.

Where no end group is shown, it is not given here. [ ]: non-standard residue; d: D form. The star is where a group is joined. C13 = acyl group coded C13, not further defined; C15 = acyl group coded C15, not further defined; C17 = acyl group coded C17, not further defined; Palmitoyl = CCCCCCCCCCCCCCCC(=O)*; pS = N[C@@H](COP(=O)(O)O)C(=O)O; K(dye2) = not defined here; OOO = not defined here

In data set [1] the test system is CCCCCCCCCCCCCCCC(=O)NCc1ccc(C(=O)NCc2c(O)ccc3c2Oc2cc(O)ccc2C32OC(=O)c3cc(C(=O)N[C@@H](COP(=O)(O)O)C(=O)N[C@@H](CC(C)C)C(=O)N[C@@H](CCCNC(=N)N)C(=O)N[C@@H](CCCNC(=N)N)C(=O)N[C@@H](CCCNC(=N)N)C(=O)N[C@@H](CCCNC(=N)N)C(=O)N[C@@H](Cc4ccccc4)C(=O)N[C@@H](CO)C(=O)N[C@@H](CCCCNC(C)=O)C(=O)NCC(N)=O)ccc32)cc1. As to the kind of experiment: Protein kinase A detection, double reciprocal plot of initial velocities (Example 1B). The data set is classed as biochemical. The note with it: other: substrate 0.15, 0.3, 0.6 μM, Tris pH 8.5, Mg-ATP 1 mM, cAMP 1 μM, catalytic subunit 2 units. Here is the method: (1 μM), and different concentrations of compound 1 (0.15 μM, 0.3 μM, and 0.6 μM), to which the catalytic subunit of protein kinase A (2 units) was then added. Fluorescence was monitored on a Perkin-Elmer LS-50B luminescence spectrometer with 500 nm excitation and emission at 530 nm, and slit width at 5 nm.

In data set [2] the test system is PKC. Description: Phosphorylation assay of linker substrates (Table 3), PKC. Format: biochemical. As to conditions: substrate conc 4 or 6 uM (column Conc). Here is the method: Protein kinase C reaction mixture aliquots (9 μL each) containing 2 μL 5× buffer (composed of 100 mM Tris, pH 8.1+25 mM MgCl2, and 0.5% v/v β-mercaptoethanol) 1 μL Upstate Lipid Activator, 0.05 μL Promega Protein Kinase C, 5.55 μL deionized water, and 0.4 μL substrate were added to wells of the 384 well plate. The reactions were initiated by the addition of 1 μL of Sigma-Aldrich ATP into each well.

Data set [3] concerns the target T1, pp60^c-src-related protein tyrosine kinase (Homo sapiens, UniProt P12931).
T1 construct: purchased Upstate, Inc. (Lake Placid, N.Y.) 14-326
As to the kind of experiment: Detection of pp60c-src-related protein tyrosine kinase (Example 10B). Format: biochemical. The note with it: substrate 2.5 μM, 5 μL reaction volume, ATP 50 μM. Here is the method:
Example 10 describes an assay for pp60^c-src-related protein tyrosine kinase. […] Enzyme reactions were performed in triplicate for a single substrate concentration, and two no-enzyme controls were also performed.
Five wells of a Corning 384-well plate, black with a non-binding surface and low volume wells (cat. No. 3676) (Corning, Inc., Acton, Mass.) were used. Each well contained 5 μL of a solution containing compound 9 (2.5 μM), MgCl2 (1 mM), Tris buffer, pH 8.1 (20 mM) and src, active (1 unit, cat. No. 14-326). The kinase reaction was initiated in three of the wells by the addition of 1.25 μL of ATP (200 μM) to a final concentration of 50 μM.

Data set [4] concerns Src, lyn, fyn. Description: Phosphorylation assay of linker substrates (Table 3), Src, lyn, fyn. The data set is classed as biochemical. As to conditions: substrate conc 8 uM.
The test system of data set [5] is T2, compound 1, palmitoyl-FAM-S(OPO3^2-)LRRRRFSK(Ac)G-amide.
T2 sequence: SLRRRRFSKG

The target of data set [6] is T3, protein kinase A (Bos taurus, UniProt P00517).
T3 construct: purchased Promega (Madison, Wis.)
Description: Detection of protein kinase activity, fluorescence increase (Examples 4B, 5B, 6B). Format: biochemical. As to conditions: for time to maximum fluorescence: after addition of ATP (compounds 7, 8) or enzyme (compound 9); for fold increase in fluorescence: maximum vs starting fluorescence; for maximum fluorescence after start of the kinase reaction / fluorescence before start of the kinase reaction: substrate 1 μM; for maximum fluorescence after start of the kinase reaction: ATP 0.5 mM, protein kinase A 35 or 7 units; for fluorescence before start of the kinase reaction: Tris pH 8.1 20 mM, MgCl2 1 mM, 100 μL. The procedure: Fluorescence data were collected on a Perkin-Elmer LS-50B luminescence spectrometer. […] ATP was added to a final concentration of 0.5 mM and the fluorescence monitored, reaching a maximum of 180 fluorescence units after 6 minutes, or a 5-fold increase.
Fluorescence data were collected on a Perkin-Elmer LS-50B luminescence spectrometer. […] ATP was added to a final concentration of 0.5 mM and the fluorescence monitored, reaching a maximum of 493 fluorescence units after 5 minutes, or a 3.5-fold increase.
Fluorescence data were collected on a Perkin-Elmer LS-50B luminescence spectrometer. […] Protein kinase A (7 Units) was added and the fluorescence monitored, reaching a maximum of 420 fluorescence units after 3 minutes, or an 8-fold increase.

Data set [7] relates to MAPK. Description: Phosphorylation assay of linker substrates (Table 3), MAPK. The data set is classed as biochemical. As to conditions: substrate conc 16 uM.
Data set [8] addresses T4, PKA (Bos taurus, UniProt P00517).
T4 construct: purchased Promega (Madison, Wis.)
As to the kind of experiment: Phosphorylation assay of linker substrates (Table 3), PKA. Format: biochemical. As to conditions: substrate conc 8 uM.

Data set [9] concerns the target MAPKAP2 (Homo sapiens, UniProt P49137). Description: Phosphorylation assay of linker substrates (Table 3), MAPKAP2. Format: biochemical. As to conditions: substrate conc 8 uM.
Data set [10] concerns the target Akt (Homo sapiens, UniProt P31749). As to the kind of experiment: Phosphorylation assay of linker substrates (Table 3), Akt. The data set is classed as biochemical. As to conditions: substrate conc 8 uM.
In data set [11] the target is E. coli alkaline phosphatase (Escherichia coli, UniProt P00634). As to the kind of experiment: Detection of phosphatase activity (Example 2B). Format: biochemical. As to conditions: substrate 20 μM, Tris HCl pH 9, MgCl2 1 mM, 0.5 units enzyme. The procedure:
Phosphatase reactions were performed in a 100 μL reaction mixture containing compound 2 (20 μM), Tris HCl buffer (50 mM) at pH 9, and MgCl2 (1 mM). Reactions were initiated by adding 0.5 units of E. coli alkaline phosphatase in 1 to 5 μL. The fluorescence was monitored on a Perkin-Elmer LS-50B luminescence spectrometer with excitation at 480 nm and emission at 525 and slit widths at 5 nm.

Sequence of MAPKAP2 (P49137 whole entry): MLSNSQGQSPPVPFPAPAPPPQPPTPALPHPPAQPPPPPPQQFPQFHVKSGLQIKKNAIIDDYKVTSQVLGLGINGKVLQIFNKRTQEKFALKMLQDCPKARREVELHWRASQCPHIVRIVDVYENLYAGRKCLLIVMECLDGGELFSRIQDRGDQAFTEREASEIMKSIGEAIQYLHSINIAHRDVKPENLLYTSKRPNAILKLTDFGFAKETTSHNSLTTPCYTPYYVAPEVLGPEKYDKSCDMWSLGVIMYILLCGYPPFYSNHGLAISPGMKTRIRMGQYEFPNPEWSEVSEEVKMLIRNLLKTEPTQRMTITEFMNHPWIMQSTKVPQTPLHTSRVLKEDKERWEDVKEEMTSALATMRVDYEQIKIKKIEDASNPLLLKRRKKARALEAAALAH
Sequence of Akt (P31749 whole entry): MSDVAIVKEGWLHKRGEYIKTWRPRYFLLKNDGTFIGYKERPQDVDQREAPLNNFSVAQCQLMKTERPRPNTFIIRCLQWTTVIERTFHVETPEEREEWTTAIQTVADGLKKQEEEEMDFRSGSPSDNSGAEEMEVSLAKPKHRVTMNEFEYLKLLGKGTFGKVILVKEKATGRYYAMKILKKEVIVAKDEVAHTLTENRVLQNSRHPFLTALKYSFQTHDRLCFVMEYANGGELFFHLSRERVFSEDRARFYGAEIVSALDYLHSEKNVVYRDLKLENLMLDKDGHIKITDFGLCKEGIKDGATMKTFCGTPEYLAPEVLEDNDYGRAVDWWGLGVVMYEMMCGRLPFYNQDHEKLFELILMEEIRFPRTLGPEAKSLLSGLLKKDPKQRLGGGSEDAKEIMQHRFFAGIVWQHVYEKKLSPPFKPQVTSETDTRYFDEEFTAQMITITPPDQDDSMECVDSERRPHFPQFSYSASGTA
Sequence of E. coli alkaline phosphatase (P00634 22-471): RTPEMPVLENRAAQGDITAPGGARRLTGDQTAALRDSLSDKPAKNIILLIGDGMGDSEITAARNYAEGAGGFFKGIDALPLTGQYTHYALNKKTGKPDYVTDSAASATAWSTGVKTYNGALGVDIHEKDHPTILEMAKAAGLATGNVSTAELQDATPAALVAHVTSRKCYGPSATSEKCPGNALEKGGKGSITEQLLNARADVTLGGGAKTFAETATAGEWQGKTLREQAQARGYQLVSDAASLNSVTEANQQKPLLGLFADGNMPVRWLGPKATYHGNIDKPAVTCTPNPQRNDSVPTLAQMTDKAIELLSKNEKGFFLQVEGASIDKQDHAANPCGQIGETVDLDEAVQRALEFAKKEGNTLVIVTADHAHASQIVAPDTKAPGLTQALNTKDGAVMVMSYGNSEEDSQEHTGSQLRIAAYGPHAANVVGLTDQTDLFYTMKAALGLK

In the case of protein kinase A (Bos taurus), the Km in data set [1] was 0.3 µM.
For “C17-OOOK(tet)-RQGSFRA-NH2 ({C17-OOO-K(TET)}-RQGSFRA-NH2; reading uncertain; also: printed as C17-OOOK(tet)-RQGSFRA-NH2) [PKC substrate; tet = 2′,7′,4,7-tetachloro-5-carboxy fluorescein]”, in data set [2], the Fold increase is reported as 7×, the “RFUs at 10 uL (final)” value is 4900 RFUs and the “RFUs at 10 uL (initial)” value stood at 700 RFUs.
Take “N-palmitoyl-Lys(ε-N-5-carboxy-sulfonefluorescein)KVEKIGEGTYGVVKK-amide ({Palmitoyl-K(5-carboxy-sulfonefluorescein)}-KVEKIGEGTYGVVKK-NH2) [Compound 13]”: the “fluorescent signal on reaction with kinase” value in data set [3] is “a strong fluorescent signal with high signal-to-noise was observed”.
For “C16-OOOK(dye2)RIGEGTYGVVRR-NH2 ({Palmitoyl-OOO-K(dye2)}-RIGEGTYGVVRR-NH2; reading uncertain; also: printed as C16-OOOK(dye2)RIGEGTYGVVRR-NH2) [Src, lyn, fyn substrate]”, in [4], the Fold increase stood at 6.5×, the “RFUs at 10 uL (final)” value is listed as 6500 RFUs and the “RFUs at 10 uL (initial)” value was determined as 1000 RFUs.
Take protein kinase A: in [5], the “Km (double reciprocal plot of initial velocities, fluorescence kinase assay)” value was “a Km value of 0.3 µM”.
Regarding “N-(1H, 1H,2H,2H-Perfluorodecyl-1-thiol-2-acetyl)-K-(5-carboxysulfofluorescein) LRRASL-G-amide [Compound 7]”, in data set [6], the “time to maximum fluorescence” value came to 6 min, the “fold increase in fluorescence” value came out at 5 fold, the “maximum fluorescence after start of the kinase reaction” value is 180 fluorescence units and the “fluorescence before start of the kinase reaction” value amounted to 35 fluorescence units.
Taken in the same sequence, the figures for “(5-carboxy-2,7-dipyridyl-sulfofluorescein)-K-(N-perfluoro-octanoyl-proline)-LRRASLG-amide [Compound 8]” were 5 min, 3.5 fold, 493 fluorescence units and 140 fluorescence units.
“C17-OOOK(dye2)PRTPGGR-NH2 ({C17-OOO-K(dye2)}-PRTPGGR-NH2; reading uncertain; also: printed as C17-OOOK(dye2)PRTPGGR-NH2) [MAPK substrate]”: in data set [7], the Fold increase was 5×, the “RFUs at 10 uL (final)” value was 5700 RFUs and the “RFUs at 10 uL (initial)” value was determined as 1100 RFUs.
As to “C13-OOOK(dye2)-LRRASLG-NH2 (not fully specified (N-terminus); printed as C13-OOOK(dye2)-LRRASLG-NH2) [PKA substrate; O = 2-aminoethoxy-2-ethoxyacetyl linker]”, in [8], the Fold increase worked out at 5×, the “RFUs at 10 uL (final)” value is 5000 RFUs and the “RFUs at 10 uL (initial)” value turned out to be 1000 RFUs.
“C16-OOOK(dye2)RLNRTLSV-NH2 ({Palmitoyl-OOO-K(dye2)}-RLNRTLSV-NH2; reading uncertain; also: printed as C16-OOOK(dye2)RLNRTLSV-NH2) [MAPKAP2 substrate]”: in data set [9], the Fold increase is on record as 4×, the “RFUs at 10 uL (final)” value amounted to 3200 RFUs and the “RFUs at 10 uL (initial)” value stood at 800 RFUs.
For “C15-OOOK(dye2)RPRTSSF-NH2 ({C15-OOO-K(dye2)}-RPRTSSF-NH2; reading uncertain; also: printed as C15-OOOK(dye2)RPRTSSF-NH2) [Akt substrate]”, in [10], the Fold increase turned out to be 4×, the “RFUs at 10 uL (final)” value is 7500 RFUs and the “RFUs at 10 uL (initial)” value is listed as 1500 RFUs.
For the substance “(N-palmitoyl)-Lys(N-5-carboxy-2,′7′-dipyridyl-sulfofluorescein)-OOO-RREGSFR-amide (RREGSFR-NH2; not fully specified (N-terminus); printed as C16-OOOK(dye2)-RREGSFR-NH2) [Compound 10]”, in [2], the Fold increase worked out at 4.5×, the “RFUs at 10 uL (final)” value was 3000 RFUs and the “RFUs at 10 uL (initial)” value came out at 650 RFUs.
Turning to “C13-K(dye2)-LRRASLG-NH2 ({C13-K(dye2)}-LRRASLG-NH2; reading uncertain; also: printed as C13-K(dye2)-LRRASLG-NH2) [PKA substrate; dye2 = 5-carboxy-2′,7′-dipyridyl-sulfonefluorescein]”, in data set [8], the Fold increase was 5×, the “RFUs at 10 uL (final)” value was 5000 RFUs and the “RFUs at 10 uL (initial)” value was 1000 RFUs.
On to “palmitoyl-LRRRRFS(OPO3^2−)K(5-FAM)G-amide (Palmitoyl-LRRRRF[pS]-{K(5-FAM)-Gly-NH2}) [Compound 2]”, for which the “change in fluorescence over time on reaction with phosphatase” value in data set [11] is “immediate and significant increase in fluorescence over time”.
On to “N-AcetylRGRPRTSSFAEG-OOOK(N-5-Carboxysulfo-fluroescein)K(N-Octadecanoyl)-amide [Compound 9]”, for which, in data set [6], the “time to maximum fluorescence” value was found to be 3 min, the “fold increase in fluorescence” value came to 8 fold, the “maximum fluorescence after start of the kinase reaction” value is 420 fluorescence units and the “fluorescence before start of the kinase reaction” value amounted to 50 fluorescence units.
